In brackets after ≈: the same amount, converted by molar mass.

For data set [1], the system named is Klebsiella aerogenes. In words: Antibacterial activity against Enterobacter aerogenes. The data set is classed as functional.
Data set [2] relates to Enterococcus faecalis. Description: Antibacterial activity against Enterococcus faecalis. The data set is classed as functional.
Data set [3] concerns Staphylococcus aureus. Description: Antibacterial activity against methicillin-resistant Staphylococcus aureus. In kind it is functional.
Data set [4] deals with Escherichia coli. In words: Antibacterial activity against Escherichia coli. The data set is classed as functional.
The subject of data set [5] is Klebsiella pneumoniae. In words: Antibacterial activity against Klebsiella pneumoniae. In kind it is functional.
Data set [6] can be described thus: Cytotoxicity against African green monkey Vero cells assessed as reduction in cell viability after 72 hrs by MTT assay. Particulars: chlorocebus sabaeus, Vero cells. In kind it is cell-based.
Data set [7] can be described thus: Selectivity index, ratio of CC50 for African green monkey Vero cells to MIC for Mycobacterium tuberculosis H37Rv. In kind it is toxicity. The settings on record: read-out: Selectivity Index.
Data set [8] concerns Enterobacter cloacae. Description: Antibacterial activity against Enterobacter cloacae. In kind it is functional.
For data set [9], the system named is Staphylococcus aureus. Description: Antibacterial activity against methicillin-sensitive Staphylococcus aureus. In kind it is functional.
The test system of data set [10] is Citrobacter freundii. Description: Antibacterial activity against Citrobacter freundii. The data set is classed as functional.
For data set [11], the system named is Staphylococcus epidermidis. Description: Antibacterial activity against methicillin-sensitive Staphylococcus epidermidis. The data set is classed as functional.
Data set [12] relates to Mycobacterium tuberculosis. Description: Antitubercular activity against Mycobacterium tuberculosis H37Rv. The data set is classed as functional.
The test system of data set [13] is Proteus mirabilis. Description: Antibacterial activity against Proteus mirabilis. In kind it is functional.
Data set [14] concerns Pseudomonas aeruginosa. In words: Antibacterial activity against Pseudomonas aeruginosa ATCC 27853. In kind it is functional.
Data set [15] has as its system Staphylococcus epidermidis. In words: Antibacterial activity against methicillin-resistant Staphylococcus epidermidis. In kind it is functional.
Data set [16] concerns Acinetobacter calcoaceticus. Description: Antibacterial activity against Acinetobacter calcoaceticus. The data set is classed as functional.
Data set [17] deals with Enterococcus faecium. In words: Antibacterial activity against Enterococcus faecium. In kind it is functional.

`CCOC(=O)c1c(-c2ccc(OC)cc2)oc2ccc(OCCCCCCN3C(=O)/C(=N\NC(N)=S)c4cc(F)ccc43)cc12`: the MIC90 in data set [1] came out at 2 µg/mL (≈ 3.16 µM); in data set [2], 1 µg/mL (≈ 1.58 µM); in data set [3], 1 µg/mL (≈ 1.58 µM); in [4] it was 0.125 µg/mL (≈ 0.198 µM); in data set [5] it was 1 µg/mL (≈ 1.58 µM); in data set [8], 0.5 µg/mL (≈ 0.79 µM). The MIC90 in [9] came out at 1 µg/mL (≈ 1.58 µM); in data set [10], 0.25 µg/mL (≈ 0.395 µM); in [11] it was 0.5 µg/mL (≈ 0.79 µM); in data set [13], 1 µg/mL (≈ 1.58 µM); in data set [14], 4 µg/mL (≈ 6.32 µM); in data set [15], 2 µg/mL (≈ 3.16 µM). For the same compound, the MIC90 in data set [16] was 16 µg/mL (≈ 25.3 µM); in [17], 32 µg/mL (≈ 50.6 µM). Besides, the CC50 at 72 h in data set [6] is 8 µg/mL (≈ 12.6 µM). In [7], the selectivity ratio is > 500. The MIC in [12] is < 0.016 µg/mL.

As to `CO[C@H]1/C=C/O[C@@]2(C)Oc3c(C)c(O)c4c(O)c(c(/C=N/N5CCN(C)CC5)c(O)c4c3C2=O)NC(=O)/C(C)=C\C=C\[C@H](C)[C@H](O)[C@@H](C)[C@@H](O)[C@@H](C)[C@H](OC(C)=O)[C@@H]1C` [RIFAMPIN], the selectivity ratio in [7] amounted to 6560. This compound came in with an MIC in [12] of 0.078 µg/mL (≈ 0.0948 µM).

With `CCOC(=O)c1c(-c2ccccc2)oc2ccc(OCCCN3C(=O)/C(=N\OC)c4cc(OC)ccc43)cc12`, the MIC90 in data set [1] is 2 µg/mL (≈ 3.78 µM); in data set [2], 1 µg/mL (≈ 1.89 µM); in data set [3], 4 µg/mL (≈ 7.57 µM); in data set [4], 0.125 µg/mL (≈ 0.236 µM); in data set [5], 0.5 µg/mL (≈ 0.946 µM); in [8] it was 0.5 µg/mL (≈ 0.946 µM). Besides, the MIC90 amounted to 1 µg/mL (≈ 1.89 µM) in data set [9]; 0.5 µg/mL (≈ 0.946 µM) in data set [10]; 0.5 µg/mL (≈ 0.946 µM) in data set [11]; 2 µg/mL (≈ 3.78 µM) in data set [13]; 1 µg/mL (≈ 1.89 µM) in data set [14]; 0.5 µg/mL (≈ 0.946 µM) in data set [15]. Further, the MIC90 in [16] is 2 µg/mL (≈ 3.78 µM); in [17] it was 16 µg/mL (≈ 30.3 µM). Moreover, the CC50 at 72 h in data set [6] is 64 µg/mL (≈ 121 µM). For the same compound, in data set [7], the selectivity ratio was > 4000. The MIC in data set [12] is < 0.016 µg/mL.

With `CCOC(=O)c1c(-c2ccc(F)cc2)oc2ccc(OCCCCCCN3C(=O)C(=O)c4cc(F)ccc43)cc12`, the MIC90 was determined as 0.125 µg/mL (≈ 0.228 µM) in data set [1]; 2 µg/mL (≈ 3.65 µM) in data set [2]; 2 µg/mL (≈ 3.65 µM) in data set [3]; 0.25 µg/mL (≈ 0.457 µM) in data set [4]; 1 µg/mL (≈ 1.83 µM) in [5]; 0.5 µg/mL (≈ 0.913 µM) in [8]. Further, the MIC90 in [9] was determined as 1 µg/mL (≈ 1.83 µM); in data set [10], 0.06 µg/mL (≈ 0.11 µM); in data set [11], 1 µg/mL (≈ 1.83 µM); in [13] it was 0.06 µg/mL (≈ 0.11 µM); in data set [14], 2 µg/mL (≈ 3.65 µM); in [15], 4 µg/mL (≈ 7.31 µM). The MIC90 in data set [16] was 4 µg/mL (≈ 7.31 µM); in data set [17] it was 16 µg/mL (≈ 29.2 µM). Moreover, the CC50 at 72 h in [6] was 512 µg/mL (≈ 935 µM). In data set [7], the selectivity ratio is > 32000. Besides, the MIC in data set [12] is < 0.016 µg/mL.

Regarding `CN[C@H](CC(C)C)C(=O)N[C@H]1C(=O)N[C@@H](CC(N)=O)C(=O)N[C@H]2C(=O)N[C@H]3C(=O)N[C@H](C(=O)N[C@H](C(=O)O)c4cc(O)cc(O)c4-c4cc3ccc4O)[C@H](O)c3ccc(c(Cl)c3)Oc3cc2cc(c3O[C@@H]2O[C@H](CO)[C@@H](O)[C@H](O)[C@H]2O[C@H]2C[C@](C)(N)[C@H](O)[C@H](C)O2)Oc2ccc(cc2Cl)[C@H]1O` [VANCOMYCIN], the MIC90 worked out at 4 µg/mL (≈ 2.76 µM) in data set [2]; 1 µg/mL (≈ 0.69 µM) in data set [3]; 0.5 µg/mL (≈ 0.345 µM) in data set [9]; 1 µg/mL (≈ 0.69 µM) in [11]; 1 µg/mL (≈ 0.69 µM) in data set [15]; 1 µg/mL (≈ 0.69 µM) in data set [17].

On to `NNC(=O)c1ccncc1` [ISONIAZID], for which the CC50 at 72 h in data set [6] was found to be 256 µg/mL (≈ 1870 µM). The selectivity ratio in data set [7] was 3280. For the same compound, 0.078 µg/mL (≈ 0.569 µM) was the least that counted as inhibitory in [12] (MIC).

The values above are taken from ChEMBL document CHEMBL4400520, “Benzofuran-isatin-imine hybrids tethered via different length alkyl linkers: Design, synthesis and in vitro evaluation of anti-tubercular and anti-bacterial activities as well as cytotoxicity” (Eur J Med Chem, 2019).
